In this assay the target is recombinant human SAE enzyme (Homo sapiens (Human), UniProt Q9UBT2). The assay can be described thus: SAE HTRF enzyme assay. Conditions: for inhibition at 0.111 µM: read-out: Percent Inhibition. Type of assay: biochemical. In a few lines:
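First, recombinant human SAE (0.11 nM) transfers Sumo-Flag onto Ubc9-GST using 0.5 μM ATP for 105 min at 24° C. Next, EDTA-containing detection buffer with labelled anti-Flag and anti-GST antibodies is added for 2 h. Finally, FRET is quantified and percent inhibition or IC50 derived.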
(Time-resolved FRET reads energy transfer from a long-lived donor to a nearby acceptor.)

[1] abbreviates: SAE inhibition at compound concentration 0.111 μM.
[2] abbreviates: SAE inhibition, class symbols, legend in nM.

Bounds are passed on as bounds.

Sequence of recombinant human SAE enzyme (Q9UBT2 whole entry): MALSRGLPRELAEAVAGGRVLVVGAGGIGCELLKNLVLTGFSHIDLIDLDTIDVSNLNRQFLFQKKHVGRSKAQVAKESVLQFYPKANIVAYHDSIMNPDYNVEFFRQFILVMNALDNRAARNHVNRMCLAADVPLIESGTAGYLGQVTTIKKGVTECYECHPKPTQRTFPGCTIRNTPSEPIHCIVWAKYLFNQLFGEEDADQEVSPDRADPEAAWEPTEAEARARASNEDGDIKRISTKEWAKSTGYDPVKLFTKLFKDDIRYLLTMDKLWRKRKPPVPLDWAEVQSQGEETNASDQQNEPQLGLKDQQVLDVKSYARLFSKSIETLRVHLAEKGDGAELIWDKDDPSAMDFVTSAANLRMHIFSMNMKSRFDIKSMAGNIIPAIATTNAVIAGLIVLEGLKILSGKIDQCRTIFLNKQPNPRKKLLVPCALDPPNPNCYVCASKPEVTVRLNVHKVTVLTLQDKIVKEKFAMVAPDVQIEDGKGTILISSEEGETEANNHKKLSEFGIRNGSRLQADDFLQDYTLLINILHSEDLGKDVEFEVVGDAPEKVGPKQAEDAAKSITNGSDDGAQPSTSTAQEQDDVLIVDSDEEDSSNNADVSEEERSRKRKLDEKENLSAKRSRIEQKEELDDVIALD
Sequence of recombinant human SAE enzyme (Q9UBE0 whole entry partner): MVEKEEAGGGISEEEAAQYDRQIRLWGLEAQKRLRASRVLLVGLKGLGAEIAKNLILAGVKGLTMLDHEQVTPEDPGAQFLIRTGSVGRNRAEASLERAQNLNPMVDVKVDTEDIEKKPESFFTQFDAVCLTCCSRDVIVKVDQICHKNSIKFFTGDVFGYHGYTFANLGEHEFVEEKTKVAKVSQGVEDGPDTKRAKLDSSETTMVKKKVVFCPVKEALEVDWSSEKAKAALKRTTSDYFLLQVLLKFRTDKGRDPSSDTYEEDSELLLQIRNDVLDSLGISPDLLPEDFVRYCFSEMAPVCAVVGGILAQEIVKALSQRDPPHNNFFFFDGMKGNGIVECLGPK

Turning to `C#Cc1cccc(Cc2csc(C(=O)c3cncnc3N[C@@H]3C[C@H](COS(N)(=O)=O)[C@@H](O)C3)c2)c1` [I-70, {(1R,2S,4R)-4-[(5-{[4-(3-Ethynylbenzyl)-2-thenyl]carbonyl}pyrimidin-4-yl)amino-2-hydroxycyclopentyl}methyl sulfamate], where the note is “Concentration 0.111 μM”, the “Percent Inhibition” value amounted to 98. In addition, the IC50 – broadly, the concentration at which inhibition is half-maximal – (class symbols A/B/C) is under 10 nM.
As for `NS(=O)(=O)OC[C@H]1C[C@@H](Nc2ncncc2C(=O)c2cc([C@H](O)c3cc(Br)ccc3F)cs2)C[C@@H]1O` (single isomer, unassigned) [I-19a, [(1R,2S,4R)-4-{[5-({4-[(R)-(5-bromo-2-fluorophenyl)(hydroxy)methyl]-2-thienyl}carbonyl)pyrimidin-4-yl]amino}-2-hydroxycyclopentyl]methyl sulfamate or [(1R,2S,4R)-4-{[5-({4-[(S)-(5-bromo-2-fluorophenyl)(hydroxy)methyl]-2-thienyl}carbonyl)pyrimidin-4-yl]amino}-2-hydroxycyclopentyl]methyl sulfamate], the “Percent Inhibition” value (Concentration 0.111 μM) is recorded as 98. In addition, the half-maximal inhibitory concentration (IC50) (class symbols A/B/C) is under 10 nM.
Take `NS(=O)(=O)OC[C@H]1C[C@@H](Nc2ncncc2C(=O)c2cc(Cc3cccc(Cl)c3)c(Cl)o2)C[C@@H]1O` [I-72, [(1R,2S,4R)-4-({5-[5-chloro-4-(3-chlorobenzyl)-2-furoyl]pyrimidin-4-yl}amino)-2-hydroxycyclopentyl]methyl sulfamate]: the inhibition (in general, the change of the read-out against control, counted positive when it falls) at 0.111 µM (Concentration 0.111 μM) amounted to 98%. In addition, the IC50 (class symbols A/B/C) was under 10 nM.
As to `NS(=O)(=O)OC[C@H]1C[C@@H](Nc2ncncc2C(=O)c2cc(C3SCCc4ccc(Cl)cc43)cs2)C[C@@H]1O` (single isomer, unassigned) [I-320a, [(1R,2S,4R)-4-{[5-({4-[(1R)-7-chloro-3,4-dihydro-1H-isothiochromen-1-yl]-2-thienyl}carbonyl)pyrimidin-4-yl]amino}-2-hydroxycyclopentyl]methyl sulfamate or [(1R,2S,4R)-4-{[5-({4-[(1S)-7-chloro-3,4-dihydro-1H-isothiochromen-1-yl]-2-thienyl}carbonyl)pyrimidin-4-yl]amino}-2-hydroxycyclopentyl]methyl sulfamate], the “Percent Inhibition” value under setting [1] is recorded as 27%. The IC50 under setting [2] lay within 100 to 1000 nM.
Consider `NS(=O)(=O)OC[C@H]1C[C@@H](Nc2ncncc2C(=O)c2cc([C@@H]3NCCc4ccc(Br)cc43)c(Cl)s2)C[C@@H]1O` (single isomer, unassigned) [I-251b, [(1R,2S,4R)-4-{[5-({4-[(1R)-7-bromo-1,2,3,4-tetrahydroisoquinolin-1-yl]-5-chloro-2-thienyl}carbonyl)pyrimidin-4-yl]amino}-2-hydroxycyclopentyl]methyl sulfamate or [(1R,2S,4R)-4-{[5-({4-[(1S)-7-bromo-1,2,3,4-tetrahydroisoquinolin-1-yl]-5-chloro-2-thienyl}carbonyl)pyrimidin-4-yl]amino}-2-hydroxycyclopentyl]methyl sulfamate], for which, under “Concentration 0.111 μM”, the “Percent Inhibition” value was found to be 97. The IC50 (class symbols A/B/C) was under 10 nM.
For `NS(=O)(=O)OC[C@H]1C[C@@H](Nc2ncncc2C(=O)c2cc([C@@H]3OCC(F)(F)c4ccc(Cl)cc43)cs2)C[C@@H]1O` (single isomer, unassigned) [I-289a, [(1R,2S,4R)-4-{[5-({4-[(1R)-7-chloro-4,4-difluoro-3,4-dihydro-1H-isochromen-1-yl]-2-thienyl}carbonyl)pyrimidin-4-yl]amino}-2-hydroxycyclopentyl]methyl sulfamate or [(1R,2S,4R)-4-{[5-({4-[(1S)-7-chloro-4,4-difluoro-3,4-dihydro-1H-isochromen-1-yl]-2-thienyl}carbonyl)pyrimidin-4-yl]amino}-2-hydroxycyclopentyl]methyl sulfamate], the “Percent Inhibition” value under setting [1] is given as 16%. The IC50 under setting [2] lay in the range of 100 to 1000 nM.
Turning to `NS(=O)(=O)OC[C@H]1C[C@@H](Nc2ncncc2C(=O)c2ccc(-c3ccccc3)o2)[C@H](O)[C@@H]1O` [I-134, [(1R,2R,3S,4R)-2,3-dihydroxy-4-{[5-(5-phenyl-2-furoyl)pyrimidin-4-yl]amino}cyclopentyl]methyl sulfamate], the inhibition at 0.111 µM (Concentration 0.111 μM) is 94%. Also, where the note is “class symbols A/B/C”, the IC50 is under 10 nM.
Consider `NS(=O)(=O)OC[C@H]1C[C@@H](Nc2ncncc2C(=O)c2cc(CO)c(Cc3cccc(Cl)c3)s2)C[C@@H]1O` [I-142, {(1R,2S,4R)-4-[(5-{[5-(3-chlorobenzyl)-4-(hydroxymethyl)-2-thienyl]carbonyl}pyrimidin-4-yl)amino]-2-hydroxycyclopentyl}methyl sulfamate], for which the inhibition at 0.111 µM (Concentration 0.111 μM) amounted to 94%. Further, the IC50 (class symbols A/B/C) is under 10 nM.
The corresponding values for `NS(=O)(=O)OC[C@H]1C[C@@H](Nc2ncncc2C(=O)c2cc(COc3ccccc3Br)cs2)C[C@@H]1O` [I-98, [(1R,2S,4R)-4-{[5-({4-[(2-bromophenoxy)methyl]-2-thienyl}carbonyl)pyrimidin-4-yl]amino}-2-hydroxycyclopentyl]methyl sulfamate] are 97% and under 10 nM.
On to `NS(=O)(=O)OC[C@H]1C[C@@H](Nc2ncncc2C(=O)c2cc(Cn3ccc4ccc(Cl)cc43)cs2)C[C@@H]1O` [I-125, [(1R,2S,4R)-4-{[5-({4-[(6-chloro-1H-indol-1-yl)methyl]-2-thienyl}carbonyl)pyrimidin-4-yl]amino}-2-hydroxycyclopentyl]methyl sulfamate], for which the inhibition at 0.111 µM (Concentration 0.111 μM) worked out at 97%. In addition, the IC50 (class symbols A/B/C) is under 10 nM.
Turning to `Cc1sc(C(=O)c2cncnc2N[C@@H]2C[C@H](COS(N)(=O)=O)[C@@H](O)C2)cc1[C@@H]1OCCc2ccc(Cl)cc21` [I-257b, [(1R,2S,4R)-4-{[5-({4-[(1R)-7-Chloro-3,4-dihydro-1H-isochromen-1-yl]-5-methyl-2-thienyl}carbonyl)pyrimidin-4-yl]amino}-2-hydroxycyclopentyl]methyl sulfamate], the inhibition at 0.111 µM (Concentration 0.111 μM) was 99%. Further, the IC50 (class symbols A/B/C) was under 10 nM.
Regarding `NS(=O)(=O)OC[C@H]1C[C@@H](Nc2ncncc2C(=O)c2cc([C@@H]3NCCc4ccc(Cl)nc43)c(Cl)s2)C[C@@H]1O` (single isomer, unassigned) [I-253a, [(1R,2S,4R)-4-{[5-({5-chloro-4-[(8S)-2-chloro-5,6,7,8-tetrahydro-1,7-naphthyridin-8-yl-2-thienyl}carbonyl)pyrimidin-4-yl]amino}-2-hydroxycyclopentyl]methyl sulfamate or ((1R,2S,4R)-4-{([5-({5-chloro-4-[(8R)-2-chloro-5,6,7,8-tetrahydro-1,7-naphthyridin-8-yl]-2-thienyl}carbonyl)pyrimidin-4-yl]amino}-2-hydroxycyclopentyl]methyl sulfamate], the “Percent Inhibition” value (Concentration 0.111 μM) is reported as 99. Further, the IC50 (class symbols A/B/C) is under 10 nM.
As for `COCc1csc(C(=O)c2cncnc2N[C@@H]2C[C@H](COS(N)(=O)=O)[C@@H](O)C2)c1` [I-217, {(1R,2S,4R)-2-Hydroxy-4-[(5-{[4-(methoxymethyl)-2-thienyl]carbonyl}pyrimidin-4-yl)amino]cyclopentyl}methyl sulfamate], where the note is “Concentration 0.111 μM”, the inhibition at 0.111 µM was 36%. Besides, the IC50 (class symbols A/B/C) was in the range of 100 to 1000 nM.
In the case of `COc1ccc2c(n1)[C@H](c1cc(C(=O)c3cncnc3N[C@@H]3C[C@H](COS(N)(=O)=O)[C@@H](O)C3)sc1C)OCC2` (single isomer, unassigned) [I-339b, [(1R,2S,4R)-2-hydroxy-4-{[5-({4-[(8S)-2-methoxy-5,8-dihydro-6H-pyrano[3,4-b]pyridin-8-yl]-5-methyl-2-thienyl}carbonyl)pyrimidin-4-yl]amino}cyclopentyl]methyl sulfamate or [(1R,2S,4R)-2-hydroxy-4-{[5-({4-[(8R)-2-methoxy-5,8-dihydro-6H-pyrano[3,4-b]pyridin-8-yl]-5-methyl-2-thienyl}carbonyl)pyrimidin-4-yl]amino}cyclopentyl]methyl sulfamate], under setting [1], the “Percent Inhibition” value stood at 94%. Besides, under setting [2], the IC50 was under 10 nM.
In the case of `NS(=O)(=O)OC[C@H]1C[C@@H](Nc2ncncc2C(=O)c2cc(Cc3cccc(I)c3)cs2)[C@@H](F)[C@@H]1O` [I-99, {(1R,2R,3R,4R)-3-fluoro-2-hydroxy-4-[(5-{[4-(3-iodobenzyl)-2-thienyl]carbonyl}pyrimidin-4-yl)amino]cyclopentyl}methyl sulfamate], the inhibition at 0.111 µM (Concentration 0.111 μM) came to 97%. Besides, the IC50 (class symbols A/B/C) was under 10 nM.
Consider `CN(C)[C@H](c1cccc(Cl)c1)c1csc(C(=O)c2cncnc2N[C@@H]2C[C@H](COS(N)(=O)=O)[C@@H](O)C2)c1` (single isomer, unassigned) [I-153b, [(1R,2S,4R)-4-{[5-({4-[(R)-(3-chlorophenyl)(dimethylamino)methyl]-2-thienyl}carbonyl)pyrimidin-4-yl]amino}-2-hydroxycyclopentyl]methyl sulfamate or [(1R,2S,4R)-4-{[5-({4-[(S)-(3-chlorophenyl)(dimethylamino)methyl]-2-thienyl}carbonyl)pyrimidin-4-yl]amino}-2-hydroxycyclopentyl]methyl sulfamate], for which, for the setting “Concentration 0.111 μM”, the “Percent Inhibition” value is on record as 92. Also, the half-maximal inhibitory concentration (IC50) (class symbols A/B/C) is under 10 nM.
Turning to `Cc1sc(C(=O)c2cncnc2N[C@@H]2C[C@H](COS(N)(=O)=O)[C@@H](O)C2)cc1[S@+]([O-])c1cccc(Cl)c1` (single isomer, unassigned) [I-28b, [(1R,2S,4R)-4-{[5-({4-[(R)-(3-chlorophenyl)sulfinyl]-5-methyl-2-thienyl}carbonyl)pyrimidin-4-yl]amino}-2-hydroxycyclopentyl]methyl sulfamate or [(1R,2S,4R)-4-{[5-({4-[(S)-(3-chlorophenyl)sulfinyl]-5-methyl-2-thienyl}carbonyl)pyrimidin-4-yl]amino}-2-hydroxycyclopentyl]methyl sulfamate], under “Concentration 0.111 μM”, the “Percent Inhibition” value came out at 100. Also, the IC50 (class symbols A/B/C) is under 10 nM.

These data come from patent publication US10780090B2, “Heteroaryl compounds useful as inhibitors of SUMO activating enzyme” (Millennium Pharmaceuticals, Inc., priority 2014, dated 2020).
